From patent publication US12351804B2, “Production method for bifurcated lipid-linked oligonucleotide, and intermediate” (Shionogi & Co., Ltd., priority 2019, dated 2025)

Test: Stability of the amidite intermediate on storage (UPLC/HPLC analysis)
Type: physicochemical
Description: The following conditions were used for the analysis of compound 5.
Mobile phase [A]: 60 mM ammonia-ammonium acetate-containing buffer solution (pH 8.0), Mobile phase [B]: acetonitrile
Gradient: 15% solvent [B] was kept for 0.5 minutes, then linear gradient from 15% to 50% solvent [B] was performed in 2.5 minutes, linear gradient from 50% to 65% solvent [B] was performed in 9 minutes, linear gradient from 65% to 95% solvent [B] was performed in 3 minutes, and 95% solvent [B] was kept for 1 minute.
Column: ACQUITY UPLC (registered trademark) BEH Phenyl (1.7 μm, i.d. 2.1×100 mm) (Waters)
UV Detection wavelength: 295 nm
The following conditions were used for the analysis of comparative compound.
Mobile phase [A]: 10 mM ammonium formate-containing aqueous solution, Mobile phase [B]: methanol
Gradient: 97% solvent [B] was kept for 20 minutes.
Column: Triart (registered trademark) C8 (3 μm, i.d. 4.6×100 mm) (YMC)
Detector: Corona CAD, Corona CAD detection conditions: 60 Hz, BCD polarity+, pressure 35±1 psi, total flow rate 1.53 mL/min

SMILES	Stability (analysis value) (−20° C., after 7 months)	Stability (analysis value) (−20° C., after 71 days)	Stability (analysis value) (−20° C., initial)	Decomposition on storage (−20° C., over time)	Decomposition on storage (40° C. for 50 days)	Stability (analysis value) (40° C., after 7 days)	Stability (analysis value) (40° C., after 50 days)	Stability (analysis value) (40° C., initial)
CCCCCCCCCCCCCCCCCCCC(=O)NCC(CNC(=O)CCCCCCCCCCCCCCCCCCC)OP(OCCC#N)N(C(C)C)C(C)C (centres unmarked) [Comparative compound]	33.8%	42.0%	54.3%	unstable				
CC(C)N(C(C)C)P(OCCC#N)OC(CN1C(=O)c2ccccc2C1=O)CN1C(=O)c2ccccc2C1=O (centres unmarked) [Compound 5]					No decomposition	99.6%	99.7%	99.6%
